Assay results from US20050118290A1, “Compositions and method for treatment of steroid/nuclear receptor-mediated diseases” (University of Singapore, priority 2003, published 2005).

Assays:
PPARα = molecular target: T1, PPARα (Homo sapiens, UniProt Q07869); test: Chimeric Gal4DBD-PPARαLBD receptor / UASg-luciferase reporter gene assay in HeLa cells; type: cell-based
T1 construct: expressed in transfected cells; host or cells: HeLa
T1 sequence (Q07869 239-466 limits assumed): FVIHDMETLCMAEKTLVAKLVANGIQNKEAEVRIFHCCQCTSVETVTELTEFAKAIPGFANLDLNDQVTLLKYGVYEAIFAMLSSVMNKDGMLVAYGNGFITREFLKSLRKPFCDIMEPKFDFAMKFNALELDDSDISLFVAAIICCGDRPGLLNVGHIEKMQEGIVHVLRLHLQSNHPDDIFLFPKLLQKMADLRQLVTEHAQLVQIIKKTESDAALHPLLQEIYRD
Text: In an example of such a reporter gene assay, a plasmid containing chimeric Ga14DBD-PPARLBD receptor cDNA was constructed by excising the ligand binding domain (LBD) of full length PPARγ and PPARα and ligating the resulting fragments in frame to the Ga14-DNA binding domain (DBD) of Saccharomyces cerevisiae in a pM vector (Clontech). Specifically, to construct Ga14DBD-PPARγLBD plasmid, pSG5 expression vector (Stratagene) containing full length PPARγ was excised with Rsa I and blunt ligated to Hind III site of pMGa14DBD expression plasmid (Clontech). To construct Ga14DBD-PPARαLBD plasmid, pSG5 expression vector (Stratagene) containing full length PPARα was excised with BstU I and BamH I and blunt-end ligated in frame to BamH I site of pMGa14DBD expression plasmid (Clontech). […] Ga14 DBD binds very strongly to the exogenous UASg promoter, thereby giving rise to a sensitive and specific assay. To measure PPARγ and PPARα agonist activity, HeLa cells were grown in 24-well microtiter plates and then transiently co-transfected with the two plasmids (chimeric PPAR receptor and UASg reporter gene) using Lipofectamine (Invitrogen). […] Concurrently, cells exposed to known PPAR ligands served as positive controls. Replicate wells, exposed to the vehicle solvent (i.e., ethanol or methanol) in which herbal extracts were dissolved, were used as negative controls. After the 40 hr incubation period, cells were rinsed with phosphate buffered saline (PBS), lysis buffer was added, and cell lysates were collected for measurement of luciferase activity using a luminometer. […] All data points are in triplicate. The data points represent the mean of triplicate wells. Luciferase activity in such an assay accurately reflects the activity of any ligands on PPARγ or PPARα.

[1] = molecular target: T2, human estrogen receptor ERα (Homo sapiens, UniProt P03372); test: ERα MMTV-ERE-LUC reporter gene assay in HeLa cells; type: cell-based
T2 construct: expressed in transfected cells; host or cells: HeLa
T2 sequence (P03372 1-595): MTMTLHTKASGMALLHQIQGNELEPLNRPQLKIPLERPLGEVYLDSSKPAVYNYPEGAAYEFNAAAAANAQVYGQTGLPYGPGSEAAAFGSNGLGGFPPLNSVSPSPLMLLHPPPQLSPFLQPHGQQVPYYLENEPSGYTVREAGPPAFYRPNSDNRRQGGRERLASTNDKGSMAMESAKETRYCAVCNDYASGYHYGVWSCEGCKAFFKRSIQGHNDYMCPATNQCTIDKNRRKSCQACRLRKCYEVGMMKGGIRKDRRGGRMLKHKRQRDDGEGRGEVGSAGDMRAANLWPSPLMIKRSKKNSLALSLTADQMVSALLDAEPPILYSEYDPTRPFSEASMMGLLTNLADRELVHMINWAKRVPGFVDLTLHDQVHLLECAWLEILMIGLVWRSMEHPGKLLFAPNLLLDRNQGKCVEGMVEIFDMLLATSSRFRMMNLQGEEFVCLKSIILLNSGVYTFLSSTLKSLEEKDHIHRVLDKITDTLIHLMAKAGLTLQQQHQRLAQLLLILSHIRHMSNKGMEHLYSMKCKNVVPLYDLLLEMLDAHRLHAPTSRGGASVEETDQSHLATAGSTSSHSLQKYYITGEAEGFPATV
Method: ERα and ERβ activity were assayed using plasmids encoding either ERα or ERβ co-transfected with the ERE-LUC reporter gene. To assay estrogen receptor agonist activity, HeLa cells were transiently co-transfected with two plasmids (Tcherepanova, et al., 2000) using Lipofectamine. The first plasmid comprised DNA encoding human estrogen receptor (either ERα or ERβ), and the second plasmid comprised an estrogen-driven reporter system comprising: a luciferase reporter gene (LUC) whose transcription is under the control of upstream regulatory elements comprising 4 copies of the vitellogenin estrogen response element (ERE) cloned into the Mouse Mammary Tumor Virus (MMTV) promoter (the full name of the reporter system being ‘MMTV-ERE-LUC’).
AR, PR, GR and ERα and […] were determined by comparing luciferase activity in test cells with control cells exposed to vehicle (i.e., ethanol or methanol) only, analogous to the determination of PPAR activity as described in the previous examples.

PPARα activity comparable to % maximal activity of W14643 (PPARα; 10×10^−6 g/ml) [%]	maximal fold PPARα activity (PPARα; 10×10^−6 g/ml) [fold]	Luciferase activity (Fold over vehicle ± SE) PPARα/WY14643 (30 × 10^−6M) (PPARα; daidzein 5 ×10^−6 g/mL) [Fold]	Luciferase activity (Fold over vehicle ± SE) PPARα/WY14643 (30 × 10^−6M) (PPARα; daidzein 10 ×10^−6 g/mL) [Fold]	Luciferase activity (Fold over vehicle ± SE) PPARα/WY14643 (30 × 10^−6M) (PPARα; daidzein 20 ×10^−6 g/mL) [Fold]	ERα activity comparable to % maximal activity of Estradiol ([1]; 5×10^−6 g/ml) [%]	maximal fold increase in ERα activity ([1]; 5×10^−6 g/ml) [fold]	Luciferase activity (Fold over vehicle ± SE) PPARα/WY14643 (30 × 10^−6M) (PPARα; calycosin 3 ×10^−6 g/mL) [Fold]	Luciferase activity (Fold over vehicle ± SE) PPARα/WY14643 (30 × 10^−6M) (PPARα; calycosin 10 ×10^−6 g/mL) [Fold]	Luciferase activity (Fold over vehicle ± SE) PPARα/WY14643 (30 × 10^−6M) (PPARα; calycosin 30 ×10^−6 g/mL) [Fold]	increase of the activity of maximal doses of PPARα agonist (PPARα; with WY14643 30×10^−6M) [fold]	ERα activity comparable to % maximal activity of Estradiol ([1]; 30×10^−6 g/ml) [%]	maximal fold increase in ERα activity ([1]; 30×10^−6 g/ml) [fold]	Luciferase activity (Fold over vehicle ± SE) ERα/Estradiol (1 × 10^−9M) ([1]; calycosin 3 ×10^−6 g/mL) [Fold]	Luciferase activity (Fold over vehicle ± SE) ERα/Estradiol (1 × 10^−9M) ([1]; calycosin 10 ×10^−6 g/mL) [Fold]	Luciferase activity (Fold over vehicle ± SE) ERα/Estradiol (1 × 10^−9M) ([1]; calycosin 30 ×10^−6 g/mL) [Fold]	increase of the activity of maximal doses of estradiol on ERα ([1]; with estradiol 1×10^−9M) [fold]	Structure (SMILES)
~73	8	58.2 ± 14.9	71.3 ± 9.90	53.4 ± 13.3	~100	20	–	–	–	–	–	–	–	–	–	–	O=c1c(-c2ccc(O)cc2)coc2cc(O)ccc12 [daidzein]
–	–	–	–	–	–	–	197 ± 20.6	257 ± 8.85	294 ± 39.2	1.8	~50	20	118 ± 2.18	127 ± 6.3	114 ± 4.18	2.9	COc1ccc(-c2coc3cc(O)ccc3c2=O)cc1O [calycosin, 3′,7-Dihydroxy-4′-methoxyisoflavone]
